{"source": "paper PMC9241057", "about": "“Ru(II)arene(N^N bpy/phen)-based RAPTA complexes for in vitro anti-tumour activity in human glioblastoma cancer cell lines and in vivo toxicity studies in a zebrafish model” (RSC Advances, 2022)", "key": {"LN229": {"tested_on": "LN229", "assay": "MTT cytotoxicity assay, LN229", "format": "cell-based, human", "conditions": "72 h incubation", "description": "(§1) The cytotoxic activity of prepared RAPTA complexes (4a–4h) was evaluated by following the standard procedure of the MTT experiment against a series of glioblastoma cells (LN 229, T98, U87MG) in triplicate. In order to accomplish this study, cells were maintained for 72 h with complexes of various concentrations ranging from 2–160 μM, taking cisplatin as a typical positive control.[22]\n(§2) RAPTA complexes were dissolved in 1% DMSO, and 0.9% NaCl aqueous solution was used to dissolve cisplatin. A cell suspension was prepared and the number of cells taken was 2.5 × 10^4 mL^−1. The cells were seeded in 96-well plates (200 μL per well) and allowed 80% confluence prior to treatment. The cells were formerly treated with various concentrations (2.5–160 μM) of complex 4a–h while the control group was treated with PBS […]. After the 72 hours of incubation, 0.5% MTT solution was added to each well (20 μL) and further incubated for 4 hours at […]. The formazan crystals that were formed were dissolved in 150 μL DMSO and then the OD was measured by a microplate reader at 540 nm. The % growth inhibition of the control and treated cells were calculated and represented as the growth inhibition percentage as explained below.% growth inhibition = 100 − [(AD × 100)/AB]where AD is the absorbance measured in wells containing the treated and control samples and AB is the measured absorbance for the wells with media and a vehicle that served as the blank. IC50 was calculated using Graphpad Prism (version 6.0) where % cell viability was plotted against drug concentration."}, "T98": {"tested_on": "T98", "assay": "MTT cytotoxicity assay, T98", "format": "cell-based, human", "conditions": "72 h incubation", "description": "as §1, §2"}, "U87MG": {"tested_on": "U87MG", "assay": "MTT cytotoxicity assay, U87MG", "format": "cell-based, human", "conditions": "72 h incubation", "description": "as §1, §2"}, "Conductivity measurement": {"assay": "Conductivity measurement", "format": "physicochemical", "conditions": "3 x 10^-5 M; for Conductivity (ΛM) 10% aq DMSO: in 10% aq DMSO; for Conductivity (ΛM) DMSO: in DMSO", "source_text": "concentrations gradually.\nOrigin Lab, version 8.5 was\nequation (v) given below: […]\nConductivity measurement 7\ncomplexes with DMSO and aqueous DMSO.\nfollowed the previously described procedure. An orbital shaker was used to shake a known\nDifferent ratios (0.5:1, 1:1,\nsaturated n-octanol to get the partition coefficient. The absorbance of aliquots of the aqueous"}, "[1]": {"assay": "n-Octanol/water partition coefficient, shake-flask method", "protocol": "n-Octanol–water partition coefficient (log P o/w)8\nUsing the previously reported shake flask approach, the log Po/w of the RAPTA complexes\namount of each complexes in water (pre-saturated with n-octanol). The solution was\ncentrifuged at 3000 rpm for 10 minutes to allow phase separation. Different ratios (0.5:1, 1:1,\nand 2:1) of saturated solutions were shaken for 20 minutes on an orbital shaker with pre-\nand octanol layers were measured with a UV-Vis spectrophotometer after adequate dilution.\nThe concentrations of the complexes in each layer were estimated using the corresponding\nmolar extinction coefficients, and the partition coefficient (log Po/w) values were computed"}, "Solubility": {"assay": "Solubility", "conditions": "DMSO-10% DMEM medium (1:99 v/v, comparable to cell media)"}, "Ct-DNA": {"tested_on": "Ct-DNA", "conditions": "comparison value, no reference given; cited from earlier work"}, "EtBr-bound DNA (Ct-DNA)": {"tested_on": "EtBr-bound DNA (Ct-DNA)", "design": "method as in PMID 34612310", "conditions": "from literature ref 20; cited from earlier work"}}}
{"molecule": "C1N2CN3CN1CP(C2)C3.Cc1ccc(C(C)C)cc1.F[P-](F)(F)(F)(F)F.F[P-](F)(F)(F)(F)F.Oc1ccnc2c1ccc1c(O)ccnc12.[Ru+2]", "note": "[4a, [(η^6-p-Cymene)Ru^II(κ^2-N,N-4,7dihydroxyphenanthroline)(PTA)]·2PF6]", "values": [{"measurement": "IC50", "setting": "LN229", "result": "1800 ± 40", "unit": "nM"}, {"measurement": "IC50", "setting": "T98", "result": "1950 ± 40", "unit": "nM"}, {"measurement": "IC50", "setting": "U87MG", "result": "1690 ± 40", "unit": "nM"}, {"measurement": "Conductivity (ΛM) 10% aq DMSO", "setting": "Conductivity measurement", "result": 74, "unit": "S cm2 mol-1"}, {"measurement": "Conductivity (ΛM) DMSO", "setting": "Conductivity measurement", "result": 72, "unit": "S cm2 mol-1"}]}
{"molecule": "C1N2CN3CN1CP(C2)C3.Cc1ccc(C(C)C)cc1.F[P-](F)(F)(F)(F)F.F[P-](F)(F)(F)(F)F.[Ru+2].c1cnc2c(c1)ccc1cccnc12", "note": "[4b, [(η^6-p-Cymene)Ru^II(κ^2-N,N-phenanthroline)(PTA)]·2PF6]", "values": [{"measurement": "IC50", "setting": "LN229", "result": "2190 ± 160", "unit": "nM"}, {"measurement": "IC50", "setting": "T98", "result": "1910 ± 80", "unit": "nM"}, {"measurement": "IC50", "setting": "U87MG", "result": "1910 ± 80", "unit": "nM"}, {"measurement": "Conductivity (ΛM) 10% aq DMSO", "setting": "Conductivity measurement", "result": 78, "unit": "S cm2 mol-1"}, {"measurement": "Conductivity (ΛM) DMSO", "setting": "Conductivity measurement", "result": 74, "unit": "S cm2 mol-1"}]}
{"molecule": "C1N2CN3CN1CP(C2)C3.Cc1ccc(C(C)C)cc1.F[P-](F)(F)(F)(F)F.F[P-](F)(F)(F)(F)F.[Ru+2].c1ccc(-c2ccccn2)nc1", "note": "[4e, [(η^6-p-Cymene)Ru^II(κ^2-N,N-bipyridine)(PTA)]·2PF6]", "values": [{"measurement": "IC50", "setting": "LN229", "result": "1890 ± 60", "unit": "nM"}, {"measurement": "IC50", "setting": "T98", "result": "1990 ± 40", "unit": "nM"}, {"measurement": "IC50", "setting": "U87MG", "result": "1750 ± 30", "unit": "nM"}, {"measurement": "log P (partition coefficient in n-octanol/water)", "setting": "[1]", "result": "1.4±0.08"}]}
{"molecule": "C1N2CN3CN1CP(C2)C3.Cc1ccc(C(C)C)cc1.F[P-](F)(F)(F)(F)F.F[P-](F)(F)(F)(F)F.O=C(O)c1ccnc(-c2cc(C(=O)O)ccn2)c1.[Ru+2]", "note": "[4f, [(η^6-p-Cymene)Ru^II(κ^2-N,N-4,4′ dicarboxylic acid bipyridine)(PTA)]·2PF6]", "values": [{"measurement": "IC50", "setting": "LN229", "result": "1790 ± 20", "unit": "nM"}, {"measurement": "IC50", "setting": "T98", "result": "2120 ± 30", "unit": "nM"}, {"measurement": "IC50", "setting": "U87MG", "result": "1570 ± 20", "unit": "nM"}, {"measurement": "Conductivity (ΛM) 10% aq DMSO", "setting": "Conductivity measurement", "result": 77, "unit": "S cm2 mol-1"}, {"measurement": "Conductivity (ΛM) DMSO", "setting": "Conductivity measurement", "result": 75, "unit": "S cm2 mol-1"}, {"measurement": "solubility", "setting": "Solubility", "result": 17, "unit": "mM"}, {"measurement": "log P (partition coefficient in n-octanol/water)", "setting": "[1]", "result": "0.33±0.03"}]}
{"molecule": "C1N2CN3CN1CP(C2)C3.CCCCCCCCCc1ccnc(-c2cc(CCCCCCCCC)ccn2)c1.Cc1ccc(C(C)C)cc1.F[P-](F)(F)(F)(F)F.F[P-](F)(F)(F)(F)F.[Ru+2]", "note": "[4h, [(η^6-p-Cymene)Ru^II(κ^2-N,N-4,4′ dinonylbipyridine)(PTA)]·2PF6]", "values": [{"measurement": "IC50", "setting": "LN229", "result": "1640 ± 30", "unit": "nM"}, {"measurement": "IC50", "setting": "T98", "result": "1470 ± 30", "unit": "nM"}, {"measurement": "IC50", "setting": "U87MG", "result": "1460 ± 30", "unit": "nM"}, {"measurement": "Conductivity (ΛM) 10% aq DMSO", "setting": "Conductivity measurement", "result": 77, "unit": "S cm2 mol-1"}, {"measurement": "Conductivity (ΛM) DMSO", "setting": "Conductivity measurement", "result": 71, "unit": "S cm2 mol-1"}]}
{"molecule": "CC[n+]1c(-c2ccccc2)c2cc(N)ccc2c2ccc(N)cc21", "note": "[EtBr, ethidium bromide]", "values": [{"measurement": "KEtBr, DNA binding constant of the typical intercalator", "setting": "Ct-DNA", "result": 700000, "unit": "M⁻¹"}, {"measurement": "KEtBr, EtBr binding constant", "setting": "EtBr-bound DNA (Ct-DNA)", "result": "1e+07", "unit": "M⁻¹"}]}
{"molecule": "[(η^6-p-Cymene)Ru^II(κ^2-N,N-4,4′ dimethylbipyridine)(PTA)]·2PF6 [4g]", "values": [{"measurement": "IC50", "setting": "LN229", "result": "1690 ± 20", "unit": "nM"}, {"measurement": "IC50", "setting": "T98", "result": "1700 ± 30", "unit": "nM"}, {"measurement": "IC50", "setting": "U87MG", "result": "1700 ± 30", "unit": "nM"}, {"measurement": "Conductivity (ΛM) 10% aq DMSO", "setting": "Conductivity measurement", "result": 74, "unit": "S cm2 mol-1"}, {"measurement": "Conductivity (ΛM) DMSO", "setting": "Conductivity measurement", "result": 72, "unit": "S cm2 mol-1"}]}
{"molecule": "cis-[Pt(NH3)2Cl2] [Cisplatin, reference compound]", "values": [{"measurement": "IC50", "setting": "LN229", "result": "1400 ± 50", "unit": "nM"}, {"measurement": "IC50", "setting": "T98", "result": "1360 ± 50", "unit": "nM"}, {"measurement": "IC50", "setting": "U87MG", "result": "1370 ± 40", "unit": "nM"}]}
